Test results published in patent US4455290A, “Inhibition of fibrin polymerization by a peptide isolated from fibrin Fragment D1” (Research Corporation, priority 1981, dated 1984).
Peptide text beside a SMILES is read from it.

Experiments:
thrombin fibrin monomer = target: T1, thrombin fibrin monomer (Homo sapiens, UniProt P02671+P02675+P02679); test: Sephadex gel equilibrium binding, thrombin fibrin monomer; conditions: 15 experiments, mean and standard deviation
T1 construct: Thrombin cleaves the bonds Aα16 Arg-17 Gly and Bβ14 Arg-15 Gly, releasing two molecules of fibrinopeptide A and two molecules of fibrinopeptide B; made in house; host or cells: not recombinant: made from fibrinogen by treatment with thrombin
T1 sequence (P02671 36-629 isoform P02671-2): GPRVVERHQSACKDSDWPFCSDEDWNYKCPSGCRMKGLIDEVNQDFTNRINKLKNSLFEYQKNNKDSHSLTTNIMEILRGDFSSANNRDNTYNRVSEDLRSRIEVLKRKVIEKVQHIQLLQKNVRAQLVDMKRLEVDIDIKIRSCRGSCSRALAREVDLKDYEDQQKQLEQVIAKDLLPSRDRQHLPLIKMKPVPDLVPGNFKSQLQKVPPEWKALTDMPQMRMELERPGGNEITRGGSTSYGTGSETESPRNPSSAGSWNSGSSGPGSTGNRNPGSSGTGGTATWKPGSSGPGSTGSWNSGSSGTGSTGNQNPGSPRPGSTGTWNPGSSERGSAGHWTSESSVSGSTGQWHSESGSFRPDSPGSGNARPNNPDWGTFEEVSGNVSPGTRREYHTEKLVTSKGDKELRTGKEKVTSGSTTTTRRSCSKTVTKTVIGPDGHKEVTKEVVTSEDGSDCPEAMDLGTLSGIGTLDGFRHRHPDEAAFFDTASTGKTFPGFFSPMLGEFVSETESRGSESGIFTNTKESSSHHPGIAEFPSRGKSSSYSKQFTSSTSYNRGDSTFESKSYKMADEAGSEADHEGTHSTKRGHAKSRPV
T1 sequence (P02675 45-491): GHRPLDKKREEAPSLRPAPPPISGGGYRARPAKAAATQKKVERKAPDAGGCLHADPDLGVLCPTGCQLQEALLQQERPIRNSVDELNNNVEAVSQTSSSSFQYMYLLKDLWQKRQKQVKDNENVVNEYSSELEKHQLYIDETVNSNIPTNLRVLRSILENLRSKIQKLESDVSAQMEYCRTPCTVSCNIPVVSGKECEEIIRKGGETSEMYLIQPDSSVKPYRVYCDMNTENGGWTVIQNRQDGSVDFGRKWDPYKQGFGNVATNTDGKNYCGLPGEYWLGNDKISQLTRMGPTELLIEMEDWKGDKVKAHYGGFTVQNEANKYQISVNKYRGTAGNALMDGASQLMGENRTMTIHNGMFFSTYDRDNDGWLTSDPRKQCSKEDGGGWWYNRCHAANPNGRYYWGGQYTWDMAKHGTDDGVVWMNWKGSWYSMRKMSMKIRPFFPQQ
T1 sequence (P02679 27-437 isoform P02679-2): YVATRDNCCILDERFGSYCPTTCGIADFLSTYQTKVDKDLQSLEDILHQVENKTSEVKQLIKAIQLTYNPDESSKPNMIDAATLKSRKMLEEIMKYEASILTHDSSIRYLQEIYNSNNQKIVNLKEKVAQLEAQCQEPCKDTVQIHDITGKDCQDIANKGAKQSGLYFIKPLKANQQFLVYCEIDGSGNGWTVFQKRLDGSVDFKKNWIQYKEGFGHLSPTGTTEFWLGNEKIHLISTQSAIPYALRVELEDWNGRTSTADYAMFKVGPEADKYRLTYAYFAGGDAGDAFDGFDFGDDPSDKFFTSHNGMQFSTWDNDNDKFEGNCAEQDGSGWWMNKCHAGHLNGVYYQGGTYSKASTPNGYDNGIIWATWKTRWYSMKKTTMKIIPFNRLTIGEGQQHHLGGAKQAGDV
Description: Acta 133, 376-379 (1979).
The purification of NDSK involves incubation of fibrinogen in cyanogen bromide in the presence of 70% formic acid. This treatment may alter the binding sites. Therefore, an attempt was made to reproduce the data using fibrin monomer instead of thrombin-treated NDSK. A major difficulty, the self-polymerization of fibrin monomer, was overcome by using high molar ratios of D1 Peptide to fibrin monomer. However, in this situation the concentration of D1 Peptide could be varied only over a small range of concentrations. D1 Peptide was added to the Sephadex gel equilibrium system and incubated for 10 min., then soluble fibrin monomer was added in a molar excess of D1 Peptide to fibrin monomer of 100-1000 fold. Under these conditions the lag time in the fibrin monomer polymerization was more than 30 min.
In experiments using thrombin fibrin monomer the number of binding sites for D1 Peptide was 1.82±0.26 (15 experiments, mean and standard deviation). For batroxobin fibrin monomer the number of binding sites was 1.91±0.24 (17 experiments, mean and standard deviation).

[1] = target: T2, thrombin-treated NH2-terminal disulfide knot (NDSK) (Homo sapiens, UniProt P02671+P02675+P02679); test: Equilibrium binding of 125-I D1 Peptide (equilibrium dialysis / Sephadex gel equilibrium), thrombin-treated NDSK
T2 sequence (P02671 36-70 limits assumed): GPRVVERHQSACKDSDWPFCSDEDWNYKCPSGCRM
T2 sequence (P02675 45-148 limits assumed): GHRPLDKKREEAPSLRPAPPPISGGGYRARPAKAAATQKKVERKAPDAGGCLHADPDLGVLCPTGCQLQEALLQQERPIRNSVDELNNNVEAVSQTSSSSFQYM
T2 sequence (P02679 27-453): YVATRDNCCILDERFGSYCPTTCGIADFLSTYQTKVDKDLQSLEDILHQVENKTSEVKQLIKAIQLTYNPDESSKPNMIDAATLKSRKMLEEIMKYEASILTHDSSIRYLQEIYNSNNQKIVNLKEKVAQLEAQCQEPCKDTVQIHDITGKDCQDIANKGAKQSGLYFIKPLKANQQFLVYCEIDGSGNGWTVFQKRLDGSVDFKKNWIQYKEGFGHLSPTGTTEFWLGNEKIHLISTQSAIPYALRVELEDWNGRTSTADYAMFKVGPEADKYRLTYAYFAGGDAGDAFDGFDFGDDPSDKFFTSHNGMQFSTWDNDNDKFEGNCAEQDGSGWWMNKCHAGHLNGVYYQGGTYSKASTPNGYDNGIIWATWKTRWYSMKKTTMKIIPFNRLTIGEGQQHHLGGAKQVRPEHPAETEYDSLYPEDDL

For `CC[C@H](C)[C@H](NC(=O)[C@H](CCCCN)NC(=O)[C@H](CCSC)NC(=O)[C@@H](NC(=O)[C@@H](NC(=O)[C@H](CCCCN)NC(=O)[C@H](CCCCN)NC(=O)[C@H](CCSC)NC(=O)[C@H](CO)NC(=O)[C@H](Cc1ccc(O)cc1)NC(=O)[C@H](Cc1c[nH]c2ccccc12)NC(=O)[C@H](CCCNC(=N)N)NC(=O)[C@@H](N)[C@@H](C)O)[C@@H](C)O)[C@@H](C)O)C(=O)N[C@H](C(=O)N1CCC[C@H]1C(=O)N[C@@H](Cc1ccccc1)C(=O)N[C@@H](CC(N)=O)C(=O)N[C@@H](CCCNC(=N)N)C(=O)N[C@@H](CC(C)C)C(=O)N[C@H](C(=O)N[C@H](C(=O)NCC(=O)N[C@@H](CCC(=O)O)C(=O)NCC(=O)N[C@@H](CCC(N)=O)C(=O)N[C@@H](CCC(N)=O)C(=O)N[C@@H](Cc1c[nH]cn1)C(=O)N[C@@H](Cc1c[nH]cn1)C(=O)N[C@@H](CC(C)C)C(=O)NCC(=O)NCC(=O)N[C@@H](C)C(=O)N[C@@H](CCCCN)C(=O)N[C@@H](CCC(N)=O)C(=O)N[C@@H](C)C(=O)NCC(=O)N[C@@H](CC(=O)O)C(=O)N[C@H](C(=O)O)C(C)C)[C@@H](C)CC)[C@@H](C)O)[C@@H](C)CC` [D1 Peptide] (H-TRWYSMKKTTMKIIPFNRLTIGEGQQHHLGGAKQAGDV-OH), the “number of binding sites for D1 Peptide” value (thrombin fibrin monomer) was 1.82±0.26, the “number of binding sites on thrombin-treated NDSK” value ([1]; Scatchard analysis (FIG. 6)) was “approximately 2.1” and the “n (number of binding sites)” value ([1]; plot of 1/free ligand vs. total NDSK/bound protein) was 2.2.
